# Reference: patent US4871740A, “Glycyrrhetic acid derivatives and use thereof” (Sanwa Kagaku Kenkyusho Co., Ltd., priority 1986, dated 1989)
# Structures can show the parent of a compound that is named as a salt.
# Key:
# stress ulcer in rats = test: Action to stress ulcer in rats (restraint and water immersion); assay type: in vivo, Male Wister rats; conditions: Rattus norvegicus, po, 30 minutes before restraint, inhibition ratio, read-out: Ulcer Index (%)
# Experimental: (Action to stress ulcer in rats)
# Male Wister rats weighing about 180 g (age: 6 weeks) were used for this experiment.
# Ten rats in each group were deprived of food for 24 hours before the experiment. They were immobilized in a restraint cage and immersed for 7 hours to the height of the xiphoid in a water bath kept at 23±1°C. After inflation with 10 ml of 1% formalin, the isolated stomach was opened along the greater curvature. The ulcer index (UI) was determined as the sum of the length (mm) of each erosion per rat. Each of the compounds to be tested was suspended in 5% gum arabic solution and given orally 30 minutes before restraint. Control animals received the same solution without any drug or the test compound.
# (§1) Inhibition ratio is expressed as follows. [formula]
# gastric necrosis in rats = test: Action to gastric necrosis in rats (absolute ethanol); assay type: in vivo, Male Sprague-Dewley rats; conditions: po, 1 hour before absolute ethanol, inhibition ratio
# Experimental: (Action to gastric necrosis in rats)
# Male Sprague-Dewley rats weighing about 250 g were used for this experiment.
# Ten rats in each group were deprived of food for 24 hours before the experiment. Each of the compounds to be tested was suspended in 5% gum arabic solution and given orally to the test animal. After 1 hours from the administration of the compound. 1 ml of absolute ethanol was administered orally and the animals were killed 1 hour later from the ethanol administration. After inflation with 10 ml of 1% formalin, the isolated stomach was opened along the greater curvature. The ulcer index (UI) was determined as the sum of the length (mm) of each erosion per rat. […]. Control animals received the same solution without any drug or the test compound.
# as §1
Compound,inhibition in vivo at 25 mg/kg (stress ulcer in rats) [%],inhibition in vivo at 50 mg/kg (stress ulcer in rats) [%],inhibition in vivo at 100 mg/kg (stress ulcer in rats) [%],Ulcer Index (%) (gastric necrosis in rats; 25 mg/kg),Ulcer Index (%) (gastric necrosis in rats; 50 mg/kg),Ulcer Index (%) (gastric necrosis in rats; 100 mg/kg),inhibition in vivo at 12.5 mg/kg (stress ulcer in rats) [%]
"COc1ccccc1N1CCN(C(=O)[C@@]2(C)CC[C@]3(C)CC[C@]4(C)C(=CC[C@@H]5[C@@]6(C)CC[C@H](O)C(C)(C)[C@@H]6CC[C@]54C)[C@@H]3C2)CC1 [Compound 2i, 1-(3β-hydroxy-18β-olean-12-en-30-oyl)-4-(o-methoxyphenyl)piperazine]",-18,4.9,46.4,,,,
"CC(C)=CCCC(C)=CCSCCNC(=O)[C@@]1(C)CC[C@]2(C)CC[C@]3(C)C(=CC[C@@H]4[C@@]5(C)CC[C@H](OC(=O)/C=C\C(=O)O)C(C)(C)[C@@H]5CC[C@]43C)[C@@H]2C1 [Compound 4a, N-[2-(3,7-Dimethyl-2,6-octadien-1-ylthio)ethyl]-3β-(3-carboxy-cis-propenoyloxy)-18β-olean-12-en-30-amide sodium salt]",21.1,58.2,73.1,,,,
CC(C)=CCCC(C)=CCCC(C)=CCSCCNC(=O)[C@@]1(C)CC[C@]2(C)CC[C@]3(C)C(=CC[C@@H]4[C@@]5(C)CC[C@H](OC(=O)/C=C\C(=O)O)C(C)(C)[C@@H]5CC[C@]43C)[C@@H]2C1 [Compound 4b],51,62.6,60.5,,,,
CC(C)=CCCC(C)=CCCC(C)=CCCC(C)=CCSCCNC(=O)[C@@]1(C)CC[C@]2(C)CC[C@]3(C)C(=CC[C@@H]4[C@@]5(C)CC[C@H](OC(=O)/C=C\C(=O)O)C(C)(C)[C@@H]5CC[C@]43C)[C@@H]2C1 [Compound 4c],30.5,46.8,61,43.3,66.1,48.9,33.3
CC(C)=CCCC(C)=CCCC(C)=CCCC(C)=CCCC(C)=CCCC(C)=CCCC(C)=CCCC(C)=CCCC(C)=CCSCCNC(=O)C1(C)CCC2(C)CCC3(C)C(=CCC4C5(C)CCC(OC(=O)C=CC(=O)O)C(C)(C)C5CCC43C)C2C1 (stereo not shown) [Compound 4d],55.4,42.1,56.2,31.7,20.6,39.2,33.9
CC(C)=CCCC(C)=CCCC(C)=CCCC(C)=CCCC(C)=CCCC(C)=CCCC(C)=CCCC(C)=CCCC(C)=CCCC(C)=CCSCCNC(=O)C1(C)CCC2(C)CCC3(C)C(=CCC4C5(C)CCC(OC(=O)C=CC(=O)O)C(C)(C)C5CCC43C)C2C1 (stereo not shown) [Compound 4e],44.7,53.5,60.5,21.3,-9.5,-34.7,50
CC(=CCSCCNC(=O)[C@@]1(C)CC[C@]2(C)CC[C@]3(C)C(=CC[C@@H]4[C@@]5(C)CC[C@H](OC(=O)/C=C\C(=O)O)C(C)(C)[C@@H]5CC[C@]43C)[C@@H]2C1)CCCC(C)CCCC(C)CCCC(C)C (stereo partly shown) [Compound 4f],16.5,4.3,34.5,,,,
CC(C)=CCCC(C)=CCCC(C)=CCN1CCN(C(=O)[C@@]2(C)CC[C@]3(C)CC[C@]4(C)C(=CC[C@@H]5[C@@]6(C)CC[C@H](OC(=O)/C=C\C(=O)O)C(C)(C)[C@@H]6CC[C@]54C)[C@@H]3C2)CC1 [Compound 4g],22.5,21.6,,,,,11.7
CC(C)=CCCC(C)=CCCC(C)=CCOC(=O)[C@@]1(C)CC[C@]2(C)CC[C@]3(C)C(=CC[C@@H]4[C@@]5(C)CC[C@H](OC(=O)/C=C\C(=O)O)C(C)(C)[C@@H]5CC[C@]43C)[C@@H]2C1 [Compound 4h],6.1,35.7,,,,,8
COc1ccccc1N1CCN(C(=O)[C@@]2(C)CC[C@]3(C)CC[C@]4(C)C(=CC[C@@H]5[C@@]6(C)CC[C@H](OC(=O)/C=C\C(=O)O)C(C)(C)[C@@H]6CC[C@]54C)[C@@H]3C2)CC1 [Compound 4i],24.4,61.4,76.5,,,,
CC(C)=CCCC(C)=CCCC(C)=CCCC(C)=CCCC(C)=CCCC(C)=CCCC(C)=CCCC(C)=CCCC(C)=CCCC(C)=CCSCCNC(=O)C1(C)CCC2(C)CCC3(C)C(=CC(=O)C4C5(C)CCC(OC(=O)C=CC(=O)O)C(C)(C)C5CCC43C)C2C1 (stereo not shown) [Compound 4k],45.5,43.6,56.4,58.7,10.9,14.3,48.5
COc1ccccc1N1CCN(C(=O)[C@@]2(C)CC[C@]3(C)CC[C@]4(C)C(=CC(=O)[C@@H]5[C@@]6(C)CC[C@H](OC(=O)/C=C\C(=O)O)C(C)(C)[C@@H]6CC[C@]54C)[C@@H]3C2)CC1 [Compound 4l],25.9,31.7,,,,,6.3
"COc1ccccc1N1CCN(C(=O)[C@@]2(C)CC[C@]3(C)CC[C@]4(C)C(=CC[C@@H]5[C@@]6(C)CC[C@H](OC(=O)CCC(=O)O)C(C)(C)[C@@H]6CC[C@]54C)[C@@H]3C2)CC1 [Compound 4m, sodium salt]",9.5,26.5,23.2,,,,
"CC1(C)[C@@H](OCC(=O)O)CC[C@]2(C)[C@H]3CC=C4[C@@H]5C[C@@](C)(C(=O)O)CC[C@]5(C)CC[C@@]4(C)[C@]3(C)CC[C@@H]12 [Compound 6, 3β-(carboxymethoxy)-18β-olean-12-en-30-oic acid disodium salt]",7.2,42.5,59.8,,,,
"CC1(C)[C@@H](OCCC(=O)O)CC[C@]2(C)[C@H]3CC=C4[C@@H]5C[C@@](C)(C(=O)O)CC[C@]5(C)CC[C@@]4(C)[C@]3(C)CC[C@@H]12 [Compound 9, 3β-(2-Carboxyethoxy)-18β-olean-12-en-30-oic acid disodium salt]",-0.7,11.8,26.1,,,,
